Each structure is given as a SMILES string. The source made the active and inactive calls. For most assays here, no stated cut-off is given here; in the data, actives have a measured AC50 and inactives only a lower limit.

Chain of FAD-linked sulfhydryl oxidase ALR (P55789 whole entry): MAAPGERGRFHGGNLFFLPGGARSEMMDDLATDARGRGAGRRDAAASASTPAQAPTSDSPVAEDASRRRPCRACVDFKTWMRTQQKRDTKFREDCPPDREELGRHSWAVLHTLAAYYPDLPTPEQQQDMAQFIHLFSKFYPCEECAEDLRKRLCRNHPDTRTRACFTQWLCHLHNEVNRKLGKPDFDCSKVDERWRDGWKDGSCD

One experiment concerns the target T1, Replicative DNA helicase DnaB (Mycobacterium tuberculosis, UniProt P9WMR3).
T1 sequence (P9WMR3 whole entry): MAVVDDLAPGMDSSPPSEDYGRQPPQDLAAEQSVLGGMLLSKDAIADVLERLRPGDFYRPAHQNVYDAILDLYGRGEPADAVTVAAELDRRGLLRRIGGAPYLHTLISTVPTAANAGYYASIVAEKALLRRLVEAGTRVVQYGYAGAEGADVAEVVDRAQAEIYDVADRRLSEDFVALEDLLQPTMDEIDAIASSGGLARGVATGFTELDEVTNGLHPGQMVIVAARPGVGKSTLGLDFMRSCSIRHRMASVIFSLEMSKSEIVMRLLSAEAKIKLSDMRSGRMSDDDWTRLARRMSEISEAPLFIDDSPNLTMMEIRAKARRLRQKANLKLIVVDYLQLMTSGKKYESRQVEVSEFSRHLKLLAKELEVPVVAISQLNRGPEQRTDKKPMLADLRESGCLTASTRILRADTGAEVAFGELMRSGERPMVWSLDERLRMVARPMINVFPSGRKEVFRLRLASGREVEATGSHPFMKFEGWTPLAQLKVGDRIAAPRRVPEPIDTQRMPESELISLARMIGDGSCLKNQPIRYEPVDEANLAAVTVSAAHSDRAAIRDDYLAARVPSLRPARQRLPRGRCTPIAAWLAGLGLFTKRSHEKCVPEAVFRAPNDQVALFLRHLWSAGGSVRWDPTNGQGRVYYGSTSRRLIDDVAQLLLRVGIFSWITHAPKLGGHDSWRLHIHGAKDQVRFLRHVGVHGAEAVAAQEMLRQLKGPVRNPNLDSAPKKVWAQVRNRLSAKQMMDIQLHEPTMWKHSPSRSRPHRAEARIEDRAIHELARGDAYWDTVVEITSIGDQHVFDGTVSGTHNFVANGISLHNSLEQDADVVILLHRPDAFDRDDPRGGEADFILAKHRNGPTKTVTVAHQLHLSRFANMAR
Description: DnaB intein splicing inhibitors, dose response, biochemical, cell-free fluorescence (AID 449749). It is filed as functional.
Conditions: not given
What is called AC50 is the concentration giving half of the maximal activity seen. As to `O=C(CN1CCN(S(=O)(=O)c2ccc(Cl)cc2)CC1)Nc1ccc2c(c1)OCO2`, the AC50 was 55.9 µM (active).
In the case of `CCCCCOP(=O)(OCCCCC)C1(NS(=O)(=O)c2ccccc2)C=CC(=O)c2ccccc21` (stereo not given), the half-maximal activity concentration (AC50) is 2.96 µM (active).
Consider `O=C(CCN1C(=O)/C(=C/c2cccs2)SC1=S)Nc1ccc(C(=O)O)c(O)c1`, for which the half-maximal activity concentration (AC50) is 5.23 µM (active).
Still for that read-out and setting: the same measure for `CCOC(=O)Cc1c(O)oc2nnc(C)c-2c1C`: > 380 µM (inactive).

The next experiment deals with T2, Protein RecA (Mycobacterium tuberculosis, UniProt P9WHJ3).
T2 sequence (P9WHJ3 whole entry): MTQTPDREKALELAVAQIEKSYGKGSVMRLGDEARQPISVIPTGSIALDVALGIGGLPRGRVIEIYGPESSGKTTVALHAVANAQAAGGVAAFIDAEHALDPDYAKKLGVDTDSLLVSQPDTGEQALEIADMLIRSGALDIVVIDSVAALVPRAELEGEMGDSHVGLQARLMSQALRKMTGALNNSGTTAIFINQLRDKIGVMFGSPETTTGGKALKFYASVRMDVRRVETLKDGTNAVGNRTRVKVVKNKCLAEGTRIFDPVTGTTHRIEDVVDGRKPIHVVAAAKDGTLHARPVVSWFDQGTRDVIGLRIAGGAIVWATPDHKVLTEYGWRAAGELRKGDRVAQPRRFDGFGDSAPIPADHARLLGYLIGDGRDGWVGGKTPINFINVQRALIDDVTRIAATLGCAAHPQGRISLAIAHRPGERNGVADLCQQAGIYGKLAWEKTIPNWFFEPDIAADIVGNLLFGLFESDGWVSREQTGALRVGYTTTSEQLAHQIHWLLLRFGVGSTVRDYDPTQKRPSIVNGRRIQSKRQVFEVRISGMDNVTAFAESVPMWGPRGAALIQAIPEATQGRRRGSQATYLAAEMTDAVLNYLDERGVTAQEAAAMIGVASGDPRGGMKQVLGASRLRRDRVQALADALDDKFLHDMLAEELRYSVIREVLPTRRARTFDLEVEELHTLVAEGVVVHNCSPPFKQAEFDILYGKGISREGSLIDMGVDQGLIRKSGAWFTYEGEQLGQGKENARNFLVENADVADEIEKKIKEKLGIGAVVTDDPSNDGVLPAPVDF
Description: Fluorescence Cell-Free Homogeneous Dose Retest to Identify Inhibitors of RecA-Intein Splicing Activity. [Related pubchem assays (depositor defined):AID2097, AID2223, AID489010, AID492950]. It is filed as functional.
Conditions: not given
As usually defined, the EC50 is the midpoint of the concentration-response curve. With `O=C(CN1CCN(S(=O)(=O)c2ccc(Cl)cc2)CC1)Nc1ccc2c(c1)OCO2`, the EC50 was > 380 µM (inactive).
The same measure, in the same setting: the same measure for `CCCCCOP(=O)(OCCCCC)C1(NS(=O)(=O)c2ccccc2)C=CC(=O)c2ccccc21` (stereo not given): 2.69 µM (active).
Still for that read-out and setting: the same measure for `O=C(CCN1C(=O)/C(=C/c2cccs2)SC1=S)Nc1ccc(C(=O)O)c(O)c1`: 13.3 µM (active); for `CCOC(=O)Cc1c(O)oc2nnc(C)c-2c1C`: 19.1 µM (active).

System in a further experiment: not listed separately
Description: Luminescence Cell-Based Dose Retest to Confirm Inhibitors of Cancer Stem Cells. [Related pubchem assays (depositor defined):AID2717, AID2721]. The experiment is classed as functional. The settings on record: Homo sapiens.
Consider `Cc1ccccc1CNc1ccc(C(CC(N)=O)NC(=O)c2ccc(Br)cc2)cc1[N+](=O)[O-]` (stereo not given), for which the AC50 was 986 nM (active).

For the next experiment, the target named is T3, Cytochrome P450 1A2 (Homo sapiens, UniProt P05177).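 Further: PubChem cytochrome P450 panel assay, CYP1A2 panel member.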
T3 sequence (P05177 whole entry): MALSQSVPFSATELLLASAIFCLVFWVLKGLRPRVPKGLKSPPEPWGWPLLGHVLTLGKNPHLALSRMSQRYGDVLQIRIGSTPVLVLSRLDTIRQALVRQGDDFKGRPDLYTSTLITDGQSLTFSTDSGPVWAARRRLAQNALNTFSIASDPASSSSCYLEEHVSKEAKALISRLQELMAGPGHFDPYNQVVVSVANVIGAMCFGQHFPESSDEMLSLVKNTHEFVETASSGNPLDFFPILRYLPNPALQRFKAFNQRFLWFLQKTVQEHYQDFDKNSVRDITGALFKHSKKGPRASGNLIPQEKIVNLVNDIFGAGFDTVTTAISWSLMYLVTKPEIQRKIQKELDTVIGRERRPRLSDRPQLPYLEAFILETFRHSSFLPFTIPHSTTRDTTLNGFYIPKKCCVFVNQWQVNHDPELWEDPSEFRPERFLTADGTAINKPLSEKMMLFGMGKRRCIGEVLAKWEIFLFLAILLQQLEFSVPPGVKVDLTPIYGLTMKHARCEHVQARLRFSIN
Conditions: not given
Regarding `O=C(CN1CCN(S(=O)(=O)c2ccc(Cl)cc2)CC1)Nc1ccc2c(c1)OCO2`, the AC50 is 15.8 µM (inconclusive).

The test system of a further experiment is INS1. As to the kind of experiment: beta cell apoptosis inhibitors, cytokine rescue, dose response, luminescence, retest (AID 449756).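 Further: cell death triggered by IL-1 beta plus TNF-alpha plus IFN-gamma mixture; protective hits raise ATP signal compared with cytokine alone wells.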 It is filed as functional, cell-based. The following applies: Rattus norvegicus.
`Cc1ccccc1CNc1ccc(C(CC(N)=O)NC(=O)c2ccc(Br)cc2)cc1[N+](=O)[O-]` (stereo not given): the AC50 was 14.9 µM (active).
The same measure, in the same setting: the same measure for `Oc1ccc(Br)cc1-c1cc(-c2ccc(Cl)cc2)[nH]n1`: 4.87 µM (active).

A further experiment concerns the target FAD-linked sulfhydryl oxidase ALR (Homo sapiens, UniProt P55789). Description: inhibitors of human ALR sulfhydryl oxidase, dose response, biochemical, H2O2 detection, luminescence, cherry-pick (AID 493248).
Conditions: not given
For the compound `CN(C)S(=O)(=O)c1ccc(C(=O)N2CCN=C2SCc2cccnc2)cc1`, the AC50 is 0.017 µM (active).
In the case of `CN(C)S(=O)(=O)c1cccc(-c2cn3cccnc3n2)c1`, the AC50 was 0.278 µM (active).
On the same count and under the same terms, under `Cn1sc(NC(=O)c2ccc(Cl)cc2)nc1=O` stands 1.88 µM (active); under `Cc1nc(C#N)c(N/N=C/c2cccc(Cl)c2)o1`, 1.66 µM (active).
Regarding `CCNc1ccc(S(=O)(=O)N(C)C)cc1NCC(=O)Nc1ccccc1Cl`, the AC50 was 5.58 µM (active).
As to `COc1ccc(NC2CCCN(C(=O)CCc3ccncc3)C2)cc1OC` (stereo not given), the half-maximal activity concentration (AC50) is 4.75 µM (active).
On to `COc1ccc(Cn2c(S)nnc2-c2ccc(OC)cc2)cc1`, for which the AC50 is 0.009 µM (active).
On the same count and under the same terms, under `COc1ccc2[nH]c(N3CCCC3)nc2c1` stands 6.11 µM (active).

The record behind these values is ChEMBL document CHEMBL1201862, “PubChem BioAssay data set” (2004).
